Columns and labels:
Test in all cases: Bliss excess, mean over the matrix (fraction); higher = more synergy
[1] = tested on: SW1116 (Colorectal Carcinoma)
How it was run: (§1)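 Cell lines grown in DMEM/F12 or RPMI with 10% FBS were plated in 1536-well plates and held 24 hours at 37°C, 5% CO2 before 72 hours of exposure to two-drug dose matrices, with DMSO typically at 0.2%. CellTiter-Glo 2.0 luminescence gave viability, which was converted to inhibition. Vehicle wells were set to 0 and blank wells to 1. Combination Emax is the second-highest inhibition in the matrix, and Bliss excess is the observed combination effect minus the expected EA + EB − EA·EB, where EA and EB are the single-agent effects.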

[2] = tested on: HO-1-u-1 (Oral Cavity Carcinoma)
How it was run: as §1

[3] = tested on: Hs-633T (Other Solid Carcinomas)
How it was run: as §1

[4] = tested on: HDLM-2 (Hodgkin's Lymphoma)
How it was run: as §1

[5] = tested on: HARA (Squamous Cell Lung Carcinoma)
How it was run: as §1

[6] = tested on: 8305C (Thyroid Gland Carcinoma)
How it was run: as §1

[7] = tested on: K5 (Thyroid Gland Carcinoma)
How it was run: as §1

[8] = tested on: COLO-829 (Melanoma)
How it was run: as §1

[9] = tested on: SK-OV-3 (Ovarian Carcinoma)
How it was run: as §1

[10] = tested on: RPMI-6666 (Non-Cancerous)
How it was run: as §1

[11] = tested on: KARPAS-231 (B-Cell Non-Hodgkin's Lymphoma)
How it was run: as §1

[12] = tested on: NCI-H2461 (Mesothelioma)
How it was run: as §1

[13] = tested on: HMV-II (Melanoma)
How it was run: as §1

[14] = tested on: SUP-T1 (T-Lymphoblastic Leukemia)
How it was run: as §1

[15] = tested on: MDA-MB-468 (Breast Carcinoma)
How it was run: as §1

[16] = tested on: NCI-H69 (Small Cell Lung Carcinoma)
How it was run: as §1

[17] = tested on: CAPAN-1 (Pancreatic Carcinoma)
How it was run: as §1

[18] = tested on: Mewo (Melanoma)
How it was run: as §1

[19] = tested on: CAL-54 (Kidney Carcinoma)
How it was run: as §1

[20] = tested on: SU-DHL-6 (B-Cell Non-Hodgkin's Lymphoma)
How it was run: as §1

| Structure (SMILES) | Bliss excess [1] | Bliss excess [2] | Bliss excess [3] | Bliss excess [4] | Bliss excess [5] | Bliss excess [6] | Bliss excess [7] | Bliss excess [8] | Bliss excess [9] | Bliss excess [10] | Bliss excess [11] | Bliss excess [12] | Bliss excess [13] | Bliss excess [14] | Bliss excess [15] | Bliss excess [16] | Bliss excess [17] | Bliss excess [18] | Bliss excess [19] | Bliss excess [20] |
| --- | --- | --- | --- | --- | --- | --- | --- | --- | --- | --- | --- | --- | --- | --- | --- | --- | --- | --- | --- | --- |
| COc1cccc(OCCCN)c1-c1cc(Nc2cnc(C#N)cn2)n[nH]1 [Prexasertib] + C=CCn1c(=O)c2cnc(Nc3ccc(N4CCN(C)CC4)cc3)nc2n1-c1cccc(C(C)(C)O)n1 [AZD1775] (first compound max 1 µM, partner max 1 µM) | 0.0689 | 0.0122 | 0.0796 | -0.0404 | 0.075 | 0.0491 | 0.0807 | -0.0067 | 0.0324 | 0.0119 | 0.0482 | -0.0573 | 0.0779 | -0.0504 | 0.0399 | 0.151 | -0.0069 | 0.0641 | -0.024 | 0.25 |
| CC1(C)CCC(CN2CCN(c3ccc(C(=O)NS(=O)(=O)c4ccc(NCC5CCOCC5)c([N+](=O)[O-])c4)c(Oc4cnc5[nH]ccc5c4)c3)CC2)=C(c2ccc(Cl)cc2)C1 [Venetoclax] + C[C@@H]1COCCN1C2=NC(=NC(=C2)C3(CC3)[S@](=N)(=O)C)C4=C5C=CNC5=NC=C4 [AZD6738] (first compound max 1 µM, 7x7, partner max 10 µM) | -0.0234 | 0.0026 | -0.0455 | 0.0068 | -0.0787 | -0.0471 | -0.0758 | 0.0059 | -0.012 | 0.0224 | -0.18 | -0.026 | -0.0853 | -0.0098 | -0.028 | -0.0494 | -0.0674 | -0.0285 | -0.0737 | 0.0561 |
| COc1cccc(OCCCN)c1-c1cc(Nc2cnc(C#N)cn2)n[nH]1 [Prexasertib] + O=C(c1cc(Cc2n[nH]c(=O)c3ccccc23)ccc1F)N1CCN(C(=O)C2CC2)CC1 [Olaparib] (first compound max 1 µM, 7x7, partner max 10 µM) | -0.0415 | -0.109 | -0.0074 | -0.046 | -0.0682 | -0.0732 | -0.051 | -0.058 | -0.12 | -0.0352 | -0.0206 | -0.0891 | -0.0242 | -0.0966 | -0.106 | 0.0332 | -0.111 | -0.0708 | -0.0942 | 0.0089 |
| C[C@@H]1COCCN1c1cc(C2([S@](C)(=N)=O)CC2)nc(-c2ccnc3[nH]ccc23)n1 [AZD6738] + O=C(c1cc(Cc2n[nH]c(=O)c3ccccc23)ccc1F)N1CCN(C(=O)C2CC2)CC1 [Olaparib] (first compound max 10 µM, 7x7, partner max 10 µM) | -0.0228 | 0.0528 | 0.0221 | -0.0437 | 0.033 | -0.0594 | -0.0175 | -0.0067 | -0.0222 | -0.0839 | -0.0708 | -0.0214 | -0.0296 | -0.0289 | -0.0227 | -0.0283 | -0.0125 | -0.0368 | 0.045 | -0.0124 |
| CN(CCO)CC[C@H](CSc1ccccc1)Nc1ccc(S(=O)(=O)NC(=O)c2ccc(N3CCC([C@@H](O)c4ccccc4-c4ccc(Cl)cc4)CC3)cc2)cc1S(=O)(=O)C(F)(F)F [AZD4320] + Cn1cnc2c(F)c(Nc3ccc(Br)cc3Cl)c(C(=O)NOCCO)cc21 [Selumetinib] (first compound max 1 µM, 7x7, partner max 3 µM) | 0.0737 | 0.0328 | -0.0329 | 0.0231 | 0.0265 | 0.097 | -0.0637 | -0.0351 | -0.0362 | -0.0047 | -0.006 | 0.0248 | 0.0015 | -0.0462 | -0.0301 | -0.0245 | 0.0665 | 0.0374 | 0.0336 | -0.0145 |
| COc1cccc(OCCCN)c1-c1cc(Nc2cnc(C#N)cn2)n[nH]1 [Prexasertib] + CCc1c2c(nc3ccc(O)cc13)-c1cc3c(c(=O)n1C2)COC(=O)[C@]3(O)CC [SN-38] (first compound max 1 µM, 7x7, partner max 0.3 µM) | 0.076 | 0.0348 | -0.0609 | -0.0701 | 0.0262 | -0.014 | -0.0708 | 0.0036 | -0.0344 | -0.0554 | -0.0111 | -0.114 | -0.0304 | -0.152 | -0.0015 | 0.162 | -0.0624 | 0.0881 | -0.115 | 0.157 |
| Cc1cc2ncnn2cc1Nc1ncc2c(n1)n(C1CCOCC1)c(=O)n2C [AZD7648] + O=C(c1cc(Cc2n[nH]c(=O)c3ccccc23)ccc1F)N1CCN(C(=O)C2CC2)CC1 [Olaparib] (first compound max 10 µM, 7x7, partner max 10 µM) | -0.0421 | -0.0481 | -0.0191 | -0.0558 | -0.0114 | -0.0478 | -0.0159 | -0.0378 | -0.0478 | -0.0545 | 0.0132 | -0.0601 | -0.0181 | -0.0488 | -0.0504 | -0.0151 | -0.1 | -0.0885 | -0.0408 | -0.0263 |
| COc1cccc(OCCCN)c1-c1cc(Nc2cnc(C#N)cn2)n[nH]1 [Prexasertib] + CN(C)CCCOc1ccc(-c2ccc3ncc4c(c3c2)n(C2CCOCC2)c(=O)n4C)cn1 [AZD0156] (first compound max 1 µM, 7x7, partner max 1 µM) | -0.0253 | 0.0251 | -0.0151 | -0.0727 | -0.0038 | -0.0926 | -0.0339 | 0.0127 | -0.066 | 0.0064 | 0.0423 | -0.0647 | -0.0143 | -0.0707 | -0.057 | -0.081 | -0.0747 | 0.0034 | 0.0611 | 0.0382 |
| CS(=O)(=O)CCNCc1ccc(-c2ccc3ncnc(Nc4ccc(OCc5cccc(F)c5)c(Cl)c4)c3c2)o1 [Lapatinib] + C[C@@H](Oc1cc(-c2cnn(C3CCNCC3)c2)cnc1N)c1c(Cl)ccc(F)c1Cl [Crizotinib] (first compound max 10 µM, 7x7, partner max 10 µM) | -0.0106 | -0.0264 | -0.0338 | -0.0545 | -0.0259 | -0.169 | -0.0213 | -0.0345 | -0.0268 | -0.0624 | 0.0324 | -0.0523 | -0.11 | -0.0469 | -0.0582 | -0.0303 | -0.0937 | -0.032 | -0.0801 | -0.0299 |
| CCN(CCO)CCCOc1ccc2c(Nc3cc(CC(=O)Nc4cccc(F)c4)[nH]n3)ncnc2c1 [AZD2811] + O=C(c1cc(Cc2n[nH]c(=O)c3ccccc23)ccc1F)N1CCN(C(=O)C2CC2)CC1 [Olaparib] (first compound max 1 µM, 7x7, partner max 10 µM) | -0.0008 | 0.0288 | 0 | -0.0224 | -0.0071 | -0.0398 | 0.0162 | 0.0233 | -0.041 | -0.0615 | 0.0091 | -0.0638 | -0.0302 | 0.0208 | 0.0541 | -0.0259 | -0.0091 | -0.0112 | -0.0073 | 0.0252 |
| CC1(C)CCC(CN2CCN(c3ccc(C(=O)NS(=O)(=O)c4ccc(NCC5CCOCC5)c([N+](=O)[O-])c4)c(Oc4cnc5[nH]ccc5c4)c3)CC2)=C(c2ccc(Cl)cc2)C1 [Venetoclax] + COc1cc(Nc2ncc3c(n2)-c2ccc(Cl)cc2C(c2c(F)cccc2OC)=NC3)ccc1C(=O)O [Alisertib] (first compound max 1 µM, 7x7, partner max 10 µM) | 0.0127 | 0.0246 | -0.0237 | 0.0993 | 0.018 | -0.0592 | -0.0455 | -0.0548 | -0.076 | 0.0702 | 0.0566 | -0.0208 | -0.0414 | 0.0423 | 0.0409 | 0.146 | -0.0425 | -0.0163 | -0.0251 | 0.121 |
| CC1(C)CCC(CN2CCN(c3ccc(C(=O)NS(=O)(=O)c4ccc(NCC5CCOCC5)c([N+](=O)[O-])c4)c(Oc4cnc5[nH]ccc5c4)c3)CC2)=C(c2ccc(Cl)cc2)C1 [Venetoclax] + C=CCn1c(=O)c2cnc(Nc3ccc(N4CCN(C)CC4)cc3)nc2n1-c1cccc(C(C)(C)O)n1 [AZD1775] (first compound max 1 µM, partner max 1 µM) | -0.0214 | -0.0256 | 0.017 | 0.0749 | 0.0494 | -0.0431 | -0.0279 | -0.012 | -0.026 | 0.0917 | -0.047 | 0.0234 | -0.0542 | 0.0425 | -0.0308 | -0.0251 | -0.0443 | -0.0079 | -0.0099 | 0.0009 |
| CCc1c2c(nc3ccc(O)cc13)-c1cc3c(c(=O)n1C2)COC(=O)[C@]3(O)CC [SN-38] + CN(C)CCCOc1ccc(-c2ccc3ncc4c(c3c2)n(C2CCOCC2)c(=O)n4C)cn1 [AZD0156] (first compound max 0.3 µM, 7x7, partner max 1 µM) | -0.0108 | 0.0393 | 0.153 | -0.0809 | 0.112 | 0.0088 | -0.0797 | -0.0257 | -0.0132 | -0.0196 | 0.0202 | -0.0236 | -0.0108 | -0.0214 | 0.0309 | -0.0197 | -0.0341 | -0.0722 | 0.005 | -0.0694 |
| NC1(C(=O)N[C@@H](CCO)c2ccc(Cl)cc2)CCN(c2ncnc3[nH]ccc23)CC1 [Capivasertib] + CC(C)n1c(=O)n(C)c2cnc3cc(F)c(-c4ccc(OCCCN5CCCCC5)nc4)cc3c21 [AZD1390] (first compound max 10 µM, 7x7, partner max 0.3 µM) | -0.0335 | -0.0332 | -0.0656 | -0.0002 | -0.0216 | -0.0773 | -0.0539 | -0.126 | -0.0754 | -0.08 | -0.0035 | -0.0579 | -0.0435 | -0.0615 | -0.0464 | -0.0793 | -0.0812 | -0.0597 | -0.0687 | -0.0071 |

Source: the supplement of paper PMC11061612
